Molecules are shown by their SMILES. Calls of active or inactive are those of the source. No cut-off for these calls is given here. Where a SMILES comes first, the peptide text is derived from it.

This experiment in a line: Inhibition of HIV1 Tat/TAR interaction at 1 to 400 uM by FRET based competition assay.
As to `N=C(N)NCCC[C@H](N)C(=O)NCCN(CC(=O)N[C@@H](CCCCN)C(=O)O)C(=O)[C@H](CCCCNC(=O)OCc1ccccc1)NC(=O)OCc1ccccc1`, the inhibition entry is “Active”.

With `NCCCC[C@H](NC(=O)CN(CCNC(=O)[C@@H](N)CCCCN)C(=O)[C@H](CCCCNC(=O)OCc1ccccc1)NC(=O)OCc1ccccc1)C(=O)O`, the inhibition result is “Active”.

Consider `C[C@H](NC(=O)[C@H](C)NC(=O)[C@@H](N)CCCCN)C(=O)O` (H-Lys-Ala-Ala-OH), for which the inhibition entry is “Active”.

Regarding `C[C@H](NC(=O)CN(CCNC(=O)[C@@H](N)CCCCN)C(=O)[C@H](C)NC(=O)OCc1ccccc1)C(=O)O`, the inhibition entry is “Active”.

For `N[C@@H](Cc1ccccc1)C(=O)NCCN(CC(=O)N[C@@H](Cc1ccccc1)C(=O)O)C(=O)[C@H](Cc1ccccc1)NC(=O)OCc1ccccc1`, the inhibition result is “Active”.

Take `NCCCC[C@H](NC(=O)[C@H](Cc1ccccc1)NC(=O)[C@@H](N)Cc1ccccc1)C(=O)O` (H-Phe-Phe-Lys-OH): the inhibition result was “Active”.

Consider `C[C@H](NC(=O)CN(CCNC(=O)[C@@H](N)CCCNC(=N)N)C(=O)[C@H](C)NC(=O)OCc1ccccc1)C(=O)O`, for which the inhibition result is “Active”.

In the case of `C[C@H](NC(=O)[C@H](CCCCN)NC(=O)[C@@H](N)CCCCN)C(=O)O` (H-Lys-Lys-Ala-OH), the inhibition entry is “Active”.

With `C[C@H](N)C(=O)NCCN(CC(=O)N[C@@H](CCCNC(=N)N)C(=O)O)C(=O)[C@H](CCCN(C(=N)NC(=O)OCc1ccccc1)C(=O)OCc1ccccc1)NC(=O)OCc1ccccc1`, the inhibition result was “Active”.

As for `C[C@H](NC(=O)CN(CCNC(=O)[C@@H](N)Cc1ccccc1)C(=O)[C@H](C)NC(=O)OCc1ccccc1)C(=O)O`, the inhibition result is “Active”.

Turning to `N=C(N)NCCC[C@H](NC(=O)[C@@H](N)CCCNC(=N)N)C(=O)N[C@@H](CCCCN)C(=O)O` (H-Arg-Arg-Lys-OH), the inhibition result is “Active”.

For `NCCCC[C@H](NC(=O)[C@@H](N)Cc1ccccc1)C(=O)N[C@@H](Cc1ccccc1)C(=O)O` (H-Phe-Lys-Phe-OH), the inhibition entry is “Active”.

With `NCCCC[C@H](NC(=O)[C@H](CCCCN)NC(=O)[C@@H](N)Cc1ccccc1)C(=O)O` (H-Phe-Lys-Lys-OH), the inhibition entry is “Active”.

For `N=C(N)NCCC[C@H](NC(=O)[C@@H](N)Cc1ccccc1)C(=O)N[C@@H](CCCCN)C(=O)O` (H-Phe-Arg-Lys-OH), the inhibition entry was “Active”.

Regarding `N=C(N)NCCC[C@H](NC(=O)[C@H](CCCNC(=N)N)NC(=O)[C@@H](N)CCCNC(=N)N)C(=O)O` (H-Arg-Arg-Arg-OH), the inhibition result is “Active”.

As to `C[C@H](N)C(=O)NCCN(CC(=O)N[C@@H](CCCCN)C(=O)O)C(=O)[C@H](CCCCNC(=O)OCc1ccccc1)NC(=O)OCc1ccccc1`, the inhibition entry was “Active”.

Regarding `N=C(N)NCCC[C@H](NC(=O)[C@H](CCCCN)NC(=O)[C@@H](N)CCCNC(=N)N)C(=O)O` (H-Arg-Lys-Arg-OH), the inhibition entry is “Active”.

With `C[C@H](NC(=O)[C@@H](N)Cc1ccccc1)C(=O)N[C@@H](Cc1ccccc1)C(=O)O` (H-Phe-Ala-Phe-OH), the inhibition entry was “Active”.

As for `N=C(N)NCCC[C@H](NC(=O)[C@@H](N)Cc1ccccc1)C(=O)N[C@@H](Cc1ccccc1)C(=O)O` (H-Phe-Arg-Phe-OH), the inhibition entry was “Active”.

Take `N=C(N)NCCC[C@H](NC(=O)CN(CCNC(=O)[C@@H](N)CCCNC(=N)N)C(=O)[C@H](CCCN(C(=N)NC(=O)OCc1ccccc1)C(=O)OCc1ccccc1)NC(=O)OCc1ccccc1)C(=O)O`: the inhibition entry is “Active”.

Turning to `NCCCC[C@H](N)C(=O)NCCN(CC(=O)N[C@@H](Cc1ccccc1)C(=O)O)C(=O)[C@H](Cc1ccccc1)NC(=O)OCc1ccccc1`, the inhibition result was “Active”.

With `N=C(N)NCCC[C@H](N)C(=O)N[C@@H](CCCCN)C(=O)N[C@@H](CCCCN)C(=O)O` (H-Arg-Lys-Lys-OH), the inhibition result was “Active”.

With `N=C(N)NCCC[C@H](NC(=O)CN(CCNC(=O)[C@@H](N)Cc1ccccc1)C(=O)[C@H](CCCN(C(=N)NC(=O)OCc1ccccc1)C(=O)OCc1ccccc1)NC(=O)OCc1ccccc1)C(=O)O`, the inhibition entry was “Active”.

Regarding `NCCCC[C@H](NC(=O)CN(CCNC(=O)[C@@H](N)Cc1ccccc1)C(=O)[C@H](CCCCNC(=O)OCc1ccccc1)NC(=O)OCc1ccccc1)C(=O)O`, the inhibition entry is “Active”.

Turning to `N=C(N)NCCC[C@H](NC(=O)[C@H](Cc1ccccc1)NC(=O)[C@@H](N)CCCNC(=N)N)C(=O)O` (H-Arg-Phe-Arg-OH), the inhibition result is “Active”.

For the compound `N[C@@H](Cc1ccccc1)C(=O)N[C@@H](Cc1ccccc1)C(=O)N[C@@H](Cc1ccccc1)C(=O)O` (H-Phe-Phe-Phe-OH), the inhibition entry was “Active”.

Turning to `C[C@H](NC(=O)[C@H](Cc1ccccc1)NC(=O)[C@@H](N)CCCCN)C(=O)O` (H-Lys-Phe-Ala-OH), the inhibition entry was “Active”.

With `C[C@H](NC(=O)[C@@H](N)CCCNC(=N)N)C(=O)N[C@@H](CCCCN)C(=O)O` (H-Arg-Ala-Lys-OH), the inhibition result was “Active”.

Consider `C[C@H](N)C(=O)NCCN(CC(=O)N[C@@H](Cc1ccccc1)C(=O)O)C(=O)[C@H](Cc1ccccc1)NC(=O)OCc1ccccc1`, for which the inhibition result is “Active”.

On to `C[C@H](N)C(=O)NCCN(CC(=O)N[C@@H](C)C(=O)O)C(=O)[C@H](C)NC(=O)OCc1ccccc1`, for which the inhibition entry is “Active”.

Take `N=C(N)NCCC[C@H](N)C(=O)NCCN(CC(=O)N[C@@H](Cc1ccccc1)C(=O)O)C(=O)[C@H](Cc1ccccc1)NC(=O)OCc1ccccc1`: the inhibition entry was “Active”.

Consider `N=C(N)NCCC[C@H](N)C(=O)N[C@@H](Cc1ccccc1)C(=O)N[C@@H](CCCCN)C(=O)O` (H-Arg-Phe-Lys-OH), for which the inhibition result is “Active”.

For the compound `N=C(N)NCCC[C@H](NC(=O)CN(CCNC(=O)[C@@H](N)CCCCN)C(=O)[C@H](CCCN(C(=N)NC(=O)OCc1ccccc1)C(=O)OCc1ccccc1)NC(=O)OCc1ccccc1)C(=O)O`, the inhibition entry was “Active”.

Source of the values: ChEMBL document CHEMBL1268951, “Polyamide amino acids trimers as TAR RNA ligands and anti-HIV agents” (Bioorg Med Chem, 2010).
